Source: US20130116323A1, “METHODS OF IMPROVING OR PRESERVING LUNG FUNCTION IN A PATIENT WITH A PULMONARY DISORDER” (The Leland Stanford Junior University, priority 2011, published 2013)
Entries after “also recorded” stand apart in the source; their conditions may differ.

Columns and labels:
ARDS and ALI = conditions: randomized controlled trials; cited from earlier work
[1] = tested on: Human Neurophil Elastase (HNE); assay: Phase II trial in CF patients: sputum neutrophil elastase activity (airway inflammation); format: in vivo; conditions: 900 mg orally 3 times a day, 24 weeks, versus placebo
Procedure: A 6-month multi-center phase II clinical trial was performed to evaluate the effect of N-acetylcysteine (PharmaNAC®, BioAdvantex Pharma, Missisauga, Ontario Canada)) 900 mg effervescent tablets taken orally 3 times a day on airway inflammation in CF patients. 70 subjects were randomized to placebo or study drug. Randomization was stratified by study site, baseline FEV1, age, gender, chronic azithromycin, inhaled aztreonam for inhalation solution (AZLI) or tobramycin inhalation solution, USP (TOBI®, Novartis) and ibuprofen use. A cohort of 16 subjects served as an initial safety cohort. The primary efficacy endpoint in this study were sputum elastase activity as measured by ELISA assay reflecting lung inflammation. […] The effect of NAC on chronic airway inflammation was measured by examining the change in the log10 of neutrophil elastase activity measured in sputum from enrollment to the end of the trial. The effect of NAC on neutrophil recruitment, lung function, pulmonary and sinus exacerbations, and on weight of CF subjects was measured by: change in the sputum neutrophil count, change in IL-8 in sputum and plasma, change in GSH in whole blood, incidence of pulmonary exacerbations, number of and time to first pulmonary exacerbation, incidence and number of antibiotics for any reason, and change in FEV1. Patient-reported outcomes (PRO) were measured by the CFQ-R and CFRD instruments.

CF patients [2] = assay: Phase II randomized placebo-controlled trial of oral NAC in CF patients: lung function by spirometry; format: in vivo, human
Procedure: A 24-week (6-month) multi-center large clinical trial was designed with randomization stratified to improve balance of baseline characteristics between treatment groups, and to improve precision between group treatment effects.
(§1) A 6-month multi-center phase II clinical trial was performed to evaluate the effect of N-acetylcysteine (PharmaNAC®, BioAdvantex Pharma, Missisauga, Ontario Canada)) 900 mg effervescent tablets taken orally 3 times a day on airway inflammation in CF patients. 70 subjects were randomized to placebo or study drug. Randomization was stratified by study site, baseline FEV1, age, gender, chronic azithromycin, inhaled aztreonam for inhalation solution (AZLI) or tobramycin inhalation solution, USP (TOBI®, Novartis) and ibuprofen use. A cohort of 16 subjects served as an initial safety cohort.
General objectives of the study included determination of safety, tolerability and efficacy of NAC versus placebo at 0 week, 6 weeks, 12 week and 24 week time points. […]
(§2) The primary efficacy endpoint in this study were sputum elastase activity as measured by ELISA assay reflecting lung inflammation. […]
(§3) The effect of NAC on chronic airway inflammation was measured by examining the change in the log10 of neutrophil elastase activity measured in sputum from enrollment to the end of the trial. The effect of NAC on neutrophil recruitment, lung function, pulmonary and sinus exacerbations, and on weight of CF subjects was measured by: change in the sputum neutrophil count, change in IL-8 in sputum and plasma, change in GSH in whole blood, incidence of pulmonary exacerbations, number of and time to first pulmonary exacerbation, incidence and number of antibiotics for any reason, and change in FEV1. Patient-reported outcomes (PRO) were measured by the CFQ-R and CFRD instruments.

patients with IPF = conditions: 600 mg NAC three times daily added to prednisone plus azothioprine, one year, versus standard therapy alone; cited from earlier work
patients with COPD = conditions: 600 mg oral NAC per day, COPD patients with at least two exacerbations per year for 2 years; cited from earlier work
[3] = compared with the stable cysteine disulfide; cited from earlier work
CF patients [4] = assay: Phase II trial in CF patients: pulmonary and sinus exacerbations and new antibiotic use; format: in vivo, human; conditions: 900 mg orally 3 times a day, 24 weeks, versus placebo
Procedure: as §1, with “cohort. […]” for “cohort.”
as §2, §3

[5] = compared with cysteine; cited from earlier work
CF patients [6] = assay: Phase II trial in CF patients: initial 16 subject safety cohort; format: in vivo, human; conditions: first 16 subject safety cohort
Procedure: as §1
General objectives of the study included determination of safety, tolerability and efficacy of NAC versus placebo at 0 week, 6 weeks, 12 week and 24 week time points. More specific objectives included evaluation of: (a) effect of NAC on number of pulmonary and sinus exacerbations and antibiotic use, (b) effect of NAC on lung inflammation; (c) effect of NAC on pulmonary function; (d) effect of NAC on weight; (e) effect of NAC on quality of life (QOL) and (f) whether NAC causes pulmonary hypertension if used chronically in high doses.
Effect of long-term treatment with NAC in promoting the development of pulmonary hypertension (PH) in subjects with cystic fibrosis is examined. A panel of clinical and molecular studies, performed at 6-week intervals, is assessed. […]

[7] = effects counter to those reported for NAC; cited from earlier work
[8] = 900 mg orally 3 times a day, 6-month period, versus placebo

Compound | early mortality (ARDS and ALI) | airways inflammation, measured by HNE [1] | FEV1 (lung function) versus baseline (CF patients [2]; 900 mg effervescent tablets orally 3 times a day, 6-month trial period, versus placebo (P=0.02)) | FEF (lung function) (CF patients [2]; [8]) | FVC (lung function) (CF patients [2]; [8]) | deterioration of DLCO (patients with IPF) | deterioration of vital capacity (patients with IPF) | preventing deterioration in lung function and exacerbations (patients with COPD) | solubility relative to cystine [3] | new antibiotic prescriptions (CF patients [4]) | number of pulmonary or sinus exacerbations (CF patients [4]) | stability relative to cysteine [5] | adverse events (CF patients [6]) | pulmonary hypertension (CF patients [6]) | bioactive dose relative to NAC [7]
CC(=O)N[C@@H](CS)C(=O)O [NAC, N-acetylcysteine] | no effect | No difference was detected | maintained baseline FEV1; also recorded: maintained lung function | maintained lung function | maintained lung function | slows the deterioration | slows the deterioration | ineffective | much more soluble | No difference was detected | No difference was detected | about 10 times | No adverse events | no pulmonary hypertension | 
CC(=O)N[C@@H](CSSC[C@H](NC(C)=O)C(=O)O)C(=O)O [oxidized form of NAC, di-N-acetylcysteine] |  |  |  |  |  |  |  |  |  |  |  |  |  |  | 10-100 fold less than NAC
